How the values were obtained:
RB pocket domain / E2F-1 = experiment: SPR competition of TpGcpE with E2F-1 for the RB pocket domain; type: binding, human; conditions: TpGcpE bound to saturation, then E2F-1 added
Text: In order to map the site of the interaction of the LXCXE motif with the RB pocket domain, we used SPR to test the ability of full-length TpGcpE protein to compete with two proteins that have known, well-characterized interactions with the RB pocket domain, E2F1 and HDAC1. The RB pocket domain was coupled to the surface of the sensor chip, and purified, recombinant, full-length TpGcpE was introduced into the flow channel to bind the RB pocket domain to saturation; then either purified, recombinant E2F-1 or HDAC1 was added to the channel and the response curve recorded to determine if they competed withTpGcpE binding.
(a) A kinetic surface plasmon resonance binding curve (sensorgram) of full-length HDAC1 to the RB pocket domain is shown. (b) Kinetic binding curve of full-length HDAC1 in competition with full-length TpMuguga02_00667 (TpGcpE). (c) A sensorgram of full-length E2F1 to the RB pocket domain is shown. […]
(§1) Kinetics analysis of binding. […] The analytes (60 µl each, 0–25 µM in HBS-EP buffer with 0.05% P20) were injected into flow cell and the association of analyte and ligand were recorded respectively by surface plasmon resonance (SPR) with a Biacore T200 (Biacore, Inc., New Jersey). […]
(§2) Data analysis. Sensorgrams of the interaction generated by the instrument were analyzed using the software BIAeval 3.2 (Biacore Inc., New Jersey). […]

[1] = molecular target: T1, Retinoblastoma-1 (RB) pocket domain (Homo sapiens, UniProt P06400); experiment: Surface plasmon resonance binding to RB pocket domain; conditions: SPR, RB pocket domain on sensor chip; sequence-scrambled peptides as negative controls
T1 construct: Recombinant, purified RB pocket domain was coupled to the surface of the sensor chip; purchased LDBiopharma HTF-1035
T1 sequence (P06400 373-771 limits assumed): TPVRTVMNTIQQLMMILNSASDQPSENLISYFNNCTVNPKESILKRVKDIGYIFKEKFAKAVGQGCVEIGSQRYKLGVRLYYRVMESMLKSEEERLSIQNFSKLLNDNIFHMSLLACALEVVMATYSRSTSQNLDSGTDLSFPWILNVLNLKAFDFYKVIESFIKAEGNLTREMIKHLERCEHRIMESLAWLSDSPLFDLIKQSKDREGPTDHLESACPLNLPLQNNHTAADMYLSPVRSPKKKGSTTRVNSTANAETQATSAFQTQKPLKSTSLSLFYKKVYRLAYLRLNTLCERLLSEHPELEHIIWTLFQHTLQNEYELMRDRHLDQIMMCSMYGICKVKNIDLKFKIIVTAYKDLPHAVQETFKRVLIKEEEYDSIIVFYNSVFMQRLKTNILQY
Text: Since the proliferation of T. parva-infected host cells is thought to be critical for the pathogenesis of infection, we investigated whether synthesized peptides, each 9 to 19 amino acids long and containing these 15 T. parva motifs, could bind to RB (Supplementary Table 1). Surface plasmon resonance (SPR) was used to screen these peptides for specific RB1 pocket domain-binding activity. Recombinant, purified RB pocket domain was coupled to the surface of the sensor chip, and purified peptides were introduced at various concentrations to quantify kinetics if response curves indicated a detectable protein-protein interaction. Sequence-scrambled peptides were used as negative controls to exclude false-positive signals.
Immobilization of human RB1 protein to CM5 chip
Surface preparation. […]
as §1, §2

RB-HDAC1 = RB-HDAC1 binding with penetrating peptides; type: cell-based; conditions: discussion statement
BL20/TBL20 cells = type: cell-based, bovine; conditions: penetrating peptides, 24 h and 48 h; data not shown
Description: Since the LXCXE peptide can induce E2F activity, we investigated whether it could, on its own, increase bovine leukocyte proliferation. To extend our observations to T. annulata-infected leukocytes, we incubated T. annulata-infected B cells with WT or mutated LXNXE peptides and counted cell numbers at 24 h and 48 h.
The amino acid sequence of RB-1 based on the parasite sequence ([…]) was synthesized. Cysteine in wild type RB1 was replaced by an Asparagine (N; in bold […]). The penetrating peptide to facilitate cell entry is underlined. 3 different concentrations of peptides were used for 2 h to determine the minimum effective concentration (1 μM) with minimum toxic effect, which was used to perform each experiment as indicated.

[2] = system: T. annulata-infected TBL20 cells; experiment: Cell proliferation, T. annulata-infected B cells (TBL20), hemacytometer count; type: cell-based, bovine
Description: (§3) (a) TpMD409B.2 cells were transfected with E2F-luc (WT = wild-type E2F binding construct), or mutated E2F-luc constructs (labeled ‘mutated’) together with a CMV-lacZ plasmid to normalize for transfection efficiency. Luciferase and β-galactosidase activities were measured 24 hrs after transfection. E2F-luc relative luciferase activity normalized to mE2F-luc. Shown is the average of 3 independent experiments with standard deviation. BL20 or TBL20 cells were treated with (b) 1μM of penetrating peptides ([…]-K(FITC)) containing the TpGcpE LXCXE motif, or an LXNXE control ([…]-K(FITC)) or (c) E2F inhibitor or DMSO control, and then counted by hemacytometer after the indicated timepoints. Shown is the average of 3 independent experiments with standard deviation. Then, either (d) virulent Ode T. annulata-transformed macrophages, or (e) BL20/TBL20 T. annulata-transformed cells were transfected with E2F-luc plasmid (or mutated E2F-luc as in (c)) and incubated for 24 hrs at 37 °C. Then, cells were treated with penetrating peptides as in (b) for 2 hrs and luciferase activity was quantified. Data shown are representative of three independent experiments done with biological duplicates, with mean + standard deviation (*P-value < 0.05 compared to untreated; ^‡P-value < 0.05 compared to its respective BL20 control).
The TpMD409.B2 cell line is a T. parva Muguga-infected B-cell clone (B2) whose establishment, phenotypic characteristics and culture conditions have been described[25]–[27]. BL20 cells are a retrovirus-transformed B cell line isolated from an infected cow. To eliminate the parasite, cells were treated for the indicated time with buparvaquone (50 ng/ml, 1 mg/ml stock in ethanol; Sigma). To inhibit E2F activity, cells were treated for the indicated time with HLM006474 (10 μM in DMSO, Sigma), or DMSO (10μM; Sigma) as a control. The T. annulata-infected cell lines BL20 (B cell), as well as Ode (macrophage) cell lines are well described and characterized.
The amino acid sequence of RB-1 based on the parasite sequence ([…]) was synthesized. Cysteine in wild type RB1 was replaced by an Asparagine (N; in bold […]). The penetrating peptide to facilitate cell entry is underlined.

[3] = system: E2F activity in T. annulata-infected B cells; experiment: E2F-luc reporter assay, T. annulata-infected B cells (TBL20); type: cell-based, bovine; conditions: for E2F reporter activity: T. annulata-infected B cells, E2F-luc, 1 μM penetrating peptide, 2 hrs
Description: (§4) Since no system for genetic manipulation is available yet for intracellular Theileria, we instead incubated T. parva- and T. annulata-infected bovine leukocytes (transfected with a luciferase reporter regulated from an E2F promoter) with synthesized peptides containing the RB-binding LXCXE motif, or a mutated LXNXE negative control, linked to a cell-penetrating peptide. If the LXCXE-containing peptide can regulate E2F activity in a sequence-specific manner, we would expect it to increase E2F activity, and that this effect would be reduced or abrogated in the mutated LXNXE peptide-treated group.
as §3, with “Data shown are representative of three independent experiments done with biological duplicates, with mean + standard deviation (*P-value < 0.05 compared to untreated; ^‡P-value < 0.05 compared to its respective BL20 control).” left out
TpMD409.B2 cells were co-transfected with 20 μg (E2F-luc, mE2F-luc), or 10 μg (cyclin E-luc) reporter construct, 20 μg of expression vector and 5 μg of pCMV-lacZ, where indicated. Luciferase and β-galactosidase activities were measured 24 h after transfection according to previously published procedures. […]

[4] = system: E2F activity in T. annulata-infected macrophages; experiment: E2F-luc reporter assay, T. annulata-transformed macrophages (Ode); type: cell-based, bovine; conditions: 1 μM penetrating peptide, 2 hrs
Description: as §4
(a) TpMD409B.2 cells were transfected with E2F-luc (WT = wild-type E2F binding construct), or mutated E2F-luc constructs (labeled ‘mutated’) together with a CMV-lacZ plasmid to normalize for transfection efficiency. Luciferase and β-galactosidase activities were measured 24 hrs after transfection. E2F-luc relative luciferase activity normalized to mE2F-luc. Shown is the average of 3 independent experiments with standard deviation. BL20 or TBL20 cells were treated with (b) 1μM of penetrating peptides ([…]-K(FITC)) containing the TpGcpE LXCXE motif, or an LXNXE control ([…]-K(FITC)) or (c) E2F inhibitor or DMSO control, and then counted by hemacytometer after the indicated timepoints. […] Then, cells were treated with penetrating peptides as in (b) for 2 hrs and luciferase activity was quantified. […]

[5] = system: E2F activity in T. parva-infected B cells; experiment: E2F-luc reporter assay, T. parva-infected B cells; type: cell-based, bovine; conditions: penetrating peptide
Description: as §4
TpMD409.B2 cells were co-transfected with 20 μg (E2F-luc, mE2F-luc), or 10 μg (cyclin E-luc) reporter construct, 20 μg of expression vector and 5 μg of pCMV-lacZ, where indicated. Luciferase and β-galactosidase activities were measured 24 h after transfection according to previously published procedures. TpMD409.B2 cells were also co-transfected with pCMV-HA-DP-1 D103–126 and c-myc-luciferase as previously described.
The amino acid sequence of RB-1 based on the parasite sequence ([…]) was synthesized. Cysteine in wild type RB1 was replaced by an Asparagine (N; in bold […]). The penetrating peptide to facilitate cell entry is underlined. […]

| Substance | competition with E2F-1 for RB pocket domain binding (RB pocket domain / E2F-1) | RB binding in words [1] | RB-HDAC1 binding (RB-HDAC1) | cell viability (BL20/TBL20 cells) | proliferation (cell number) ([2]; T. annulata-infected B cells, 1 μM penetrating peptide, 24 h and 48 h, average of 3 independent experiments) | infected leukocyte proliferation ([2]; discussion statement) | E2F reporter activity [3] | E2F-driven transcription ([3]; discussion statement, infected leukocytes) | E2F reporter activity [4] | E2F reporter activity [5] |
| --- | --- | --- | --- | --- | --- | --- | --- | --- | --- | --- |
| E2F1: host E2F transcription factor, known RB pocket domain binder | does not compete with full-length TpGcpE for binding to the RB pocket domain | binding to the RB pocket domain | – | – | – | – | – | – | – | – |
| VKKKKIKREIKIYIEEVFTPLVLKCKELK-K(FITC) [LXCXE peptide, penetrating peptide containing the TpGcpE LXCXE motif, used in cells] | – | – | block RB-HDAC1 binding | no effect on cell viability | induced a significant increase in proliferation | promote infected leukocyte proliferation | increased E2F activity | activate E2F-driven transcription | increased E2F activity | – |
| VKKKKIKREIKIYIEEVFTPLVLKNKELK-K(FITC) [LXNXE peptide, penetrating peptide with mutated LXNXE motif, negative control] | – | – | – | no effect on cell viability | – | – | did not show the same reporter activity as the LXCXE peptide | – | did not show the same reporter activity as the LXCXE peptide | did not show the same reporter activity as the LXCXE peptide |

From paper PMC7055300, “Theileria parasites subvert E2F signaling to stimulate leukocyte proliferation” (Scientific Reports, 2020)
